# Data: patent US20240384268A1, “Oligonucleotides” (Hudson Institute of Medical Research, priority 2021, published 2024)
# Target: T1, human TLR9 (Homo sapiens, UniProt Q9NR96)
# T1 construct: HA; host or cells: 293XL-hTLR9-HA (HEK293)
# T1 sequence (Q9NR96 26-1032): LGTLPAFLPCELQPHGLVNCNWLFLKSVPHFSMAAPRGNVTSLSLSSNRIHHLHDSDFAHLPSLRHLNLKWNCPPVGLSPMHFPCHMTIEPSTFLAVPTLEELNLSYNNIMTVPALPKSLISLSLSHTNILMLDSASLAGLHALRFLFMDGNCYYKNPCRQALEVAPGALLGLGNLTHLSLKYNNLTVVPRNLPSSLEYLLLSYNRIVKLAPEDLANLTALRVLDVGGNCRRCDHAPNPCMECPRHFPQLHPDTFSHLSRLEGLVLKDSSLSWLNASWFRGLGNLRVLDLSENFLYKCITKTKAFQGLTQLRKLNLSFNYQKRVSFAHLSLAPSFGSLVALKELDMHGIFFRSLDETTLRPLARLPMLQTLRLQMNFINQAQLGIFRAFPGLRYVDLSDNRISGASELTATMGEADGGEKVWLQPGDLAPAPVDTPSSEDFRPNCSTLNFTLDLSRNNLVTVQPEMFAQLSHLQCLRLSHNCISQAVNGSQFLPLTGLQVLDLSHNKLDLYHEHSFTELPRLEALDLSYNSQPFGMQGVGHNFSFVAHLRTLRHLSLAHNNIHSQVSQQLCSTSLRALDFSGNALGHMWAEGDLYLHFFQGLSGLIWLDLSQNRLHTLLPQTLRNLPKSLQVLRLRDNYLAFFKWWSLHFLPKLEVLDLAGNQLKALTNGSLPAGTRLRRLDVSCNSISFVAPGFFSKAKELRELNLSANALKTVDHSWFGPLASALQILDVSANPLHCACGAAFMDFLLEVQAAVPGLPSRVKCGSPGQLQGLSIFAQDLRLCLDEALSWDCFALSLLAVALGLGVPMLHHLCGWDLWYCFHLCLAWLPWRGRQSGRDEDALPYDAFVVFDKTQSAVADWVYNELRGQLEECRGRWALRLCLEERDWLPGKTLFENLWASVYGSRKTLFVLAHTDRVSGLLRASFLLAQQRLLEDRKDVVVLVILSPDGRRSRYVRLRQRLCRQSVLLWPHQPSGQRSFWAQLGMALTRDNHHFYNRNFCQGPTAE
# Experiment: HEK-TLR9 NF-κB-luciferase reporter, ODN2006 stimulation
# Type: cell-based
# Conditions: MOE-modified ASO at 100 nM; averaged NF-κB-Luciferase relative to ODN2006 condition
row,Sequence,TLR9 100 nM
1,"AACACTTCGTGGGGTCCTTT (antisense; 2'-MOE modified, pattern not given here) [HPRT-664 MOE]",0.426
2,"AATCCGCCCAAAGGGAACTG (antisense; 2'-MOE modified, pattern not given here) [HPRT-1027 MOE]",0.591
3,"ACAACCCCTTTCACCATCCC (antisense; 2'-MOE modified, pattern not given here) [MB21D1-689 MOE]",0.785
4,"ACAGTGTTGAGATACTCGGG (antisense; 2'-MOE modified, pattern not given here) [EGFR-3652 MOE]",0.436
5,"ACCCACTTGGCAGACCATCA (antisense; 2'-MOE modified, pattern not given here) [CTNN2B-1575 MOE]",0.725
6,"ACTGACTGTCTTGAGGGTTC (antisense; 2'-MOE modified, pattern not given here) [MB21D1-1483 MOE]",0.424
7,"AGATCTGGCAGCCCATCAAC (antisense; 2'-MOE modified, pattern not given here) [CTNN2B-2516 MOE]",0.607
8,"AGGTCTTGGCTTCGTGGAGC (antisense; 2'-MOE modified, pattern not given here) [MB21D1-522 MOE]",0.568
9,"ATCCAACACTTCGTGGGGTC (antisense; 2'-MOE modified, pattern not given here) [HPRT-668 MOE]",0.287
10,"ATGTCCCCTGTTGACTGGTC (antisense; 2'-MOE modified, pattern not given here) [HPRT-489 MOE]",0.968
11,"ATGTCCCGCCACTGGATGCT (antisense; 2'-MOE modified, pattern not given here) [EGFR-727 MOE]",0.801
12,"ATGTGATGGCCTCCCATCTC (antisense; 2'-MOE modified, pattern not given here) [HPRT-333 MOE]",0.900
13,"CAACACTTCGTGGGGTCCTT (antisense; 2'-MOE modified, pattern not given here) [HPRT-665 MOE]",0.858
14,"CAAGGCCCTTCGCACTTCTT (antisense; 2'-MOE modified, pattern not given here) [EGFR-1225 MOE]",0.624
15,"CAATGTGATGGCCTCCCATC (antisense; 2'-MOE modified, pattern not given here) [HPRT-335 MOE]",0.614
16,"CACCCACTTGGCAGACCATC (antisense; 2'-MOE modified, pattern not given here) [CTNN2B-1576 MOE]",0.665
17,"CAGATAGCACCTTCAGCACT (antisense; 2'-MOE modified, pattern not given here) [CTNN2B-1294 MOE]",0.583
18,"CCAACACTTCGTGGGGTCCT (antisense; 2'-MOE modified, pattern not given here) [HPRT-666 MOE]",0.612
19,"CGTGTCTGGAAGCTTCCTTT (antisense; 2'-MOE modified, pattern not given here) [CTNN2B-808 MOE]",0.568

row,Sequence,TLR9 100 nM
1,"CTCTTGAAGCATCGTATCAC (antisense; 2'-MOE modified, pattern not given here) [CTNN2B-3648 MOE]",0.721
2,"CTGTGATCTTGACATGCTGC (antisense; 2'-MOE modified, pattern not given here) [EGFR-2790 MOE]",0.506
3,"CTTACTTTCCGAGGTGTCCA (antisense; 2'-MOE modified, pattern not given here) [CAMSAP1-1739 MOE]",0.647
4,"GAACCACGTCTGCTCTAACA (antisense; 2'-MOE modified, pattern not given here) [CAMSAP1-1635 MOE]",0.588
5,"GAGGTCTTGGCTTCGTGGAG (antisense; 2'-MOE modified, pattern not given here) [MB21D1-523 MOE]",0.888
6,"GAGTCTCTGGAGCTTCCTCT (antisense; 2'-MOE modified, pattern not given here) [CAMSAP1-2456 MOE]",0.594
7,"GATGCTCCTCGGTCTCCCTT (antisense; 2'-MOE modified, pattern not given here) [CAMSAP1-1850 MOE]",0.792
8,"GATGGCCTCCCATCTCCTTC (antisense; 2'-MOE modified, pattern not given here) [HPRT-329 MOE]",0.662
9,"GCCGCTTTTCTGTCTGGTTC (antisense; 2'-MOE modified, pattern not given here) [CTNN2B-311 MOE]",0.684
10,"GCGACTATACGCGCAATATG (antisense; 2'-MOE modified, pattern not given here) [NC5 2′MOE]",0.395
11,"GCGGAGGTCTTGGCTTCGTG (antisense; 2'-MOE modified, pattern not given here) [MB21D1-526 MOE]",0.682
12,"GCGTATTATAGCCGATTAAC (antisense; 2'-MOE modified, pattern not given here) [NC1 2′MOE]",0.460
13,"GCGTGTCTGGAAGCTTCCTT (antisense; 2'-MOE modified, pattern not given here) [CTNN2B-809 MOE]",0.263
14,"GCTTCAGGCGCTGCCTTGCC (antisense; 2'-MOE modified, pattern not given here) [CAMSAP1-2709 MOE]",0.833
15,"GGAGATTTCAGAGCAGCTTC (antisense; 2'-MOE modified, pattern not given here) [EGFR-4885 MOE]",0.541
16,"GGAGCTTCGAGGCCCCAGGC (MOE modified, pattern not given here) [MB21D1-616 MOE]",0.588
17,"GGAGGTCTTGGCTTCGTGGA (antisense; 2'-MOE modified, pattern not given here) [MB21D1-524 MOE]",0.466
18,"GGCATCCACCACGTCGTCCA (antisense; 2'-MOE modified, pattern not given here) [EGFR-3266 MOE]",0.742
19,"GGGAAAGGTTATGCAAGGTC (antisense; 2'-MOE modified, pattern not given here) [CTNN2B-916 MOE]",0.521

# Same assay, conditions: MOE-modified ASO at 500 nM; averaged NF-κB-Luciferase relative to ODN2006 condition
row,Sequence,TLR9 500 nM
1,"AACACTTCGTGGGGTCCTTT (antisense; 2'-MOE modified, pattern not given here) [HPRT-664 MOE]",0.402
2,"AATCCGCCCAAAGGGAACTG (antisense; 2'-MOE modified, pattern not given here) [HPRT-1027 MOE]",0.591
3,"ACAACCCCTTTCACCATCCC (antisense; 2'-MOE modified, pattern not given here) [MB21D1-689 MOE]",0.499
4,"ACAGTGTTGAGATACTCGGG (antisense; 2'-MOE modified, pattern not given here) [EGFR-3652 MOE]",0.194
5,"ACCCACTTGGCAGACCATCA (antisense; 2'-MOE modified, pattern not given here) [CTNN2B-1575 MOE]",0.556
6,"ACTGACTGTCTTGAGGGTTC (antisense; 2'-MOE modified, pattern not given here) [MB21D1-1483 MOE]",0.291
7,"AGATCTGGCAGCCCATCAAC (antisense; 2'-MOE modified, pattern not given here) [CTNN2B-2516 MOE]",0.268
8,"AGGTCTTGGCTTCGTGGAGC (antisense; 2'-MOE modified, pattern not given here) [MB21D1-522 MOE]",0.280
9,"ATCCAACACTTCGTGGGGTC (antisense; 2'-MOE modified, pattern not given here) [HPRT-668 MOE]",0.618
10,"ATGTCCCCTGTTGACTGGTC (antisense; 2'-MOE modified, pattern not given here) [HPRT-489 MOE]",0.953
11,"ATGTCCCGCCACTGGATGCT (antisense; 2'-MOE modified, pattern not given here) [EGFR-727 MOE]",0.423
12,"ATGTGATGGCCTCCCATCTC (antisense; 2'-MOE modified, pattern not given here) [HPRT-333 MOE]",0.918
13,"CAACACTTCGTGGGGTCCTT (antisense; 2'-MOE modified, pattern not given here) [HPRT-665 MOE]",0.619
14,"CAAGGCCCTTCGCACTTCTT (antisense; 2'-MOE modified, pattern not given here) [EGFR-1225 MOE]",0.712
15,"CAATGTGATGGCCTCCCATC (antisense; 2'-MOE modified, pattern not given here) [HPRT-335 MOE]",0.412
16,"CACCCACTTGGCAGACCATC (antisense; 2'-MOE modified, pattern not given here) [CTNN2B-1576 MOE]",0.677
17,"CAGATAGCACCTTCAGCACT (antisense; 2'-MOE modified, pattern not given here) [CTNN2B-1294 MOE]",0.484
18,"CCAACACTTCGTGGGGTCCT (antisense; 2'-MOE modified, pattern not given here) [HPRT-666 MOE]",0.600
19,"CGTGTCTGGAAGCTTCCTTT (antisense; 2'-MOE modified, pattern not given here) [CTNN2B-808 MOE]",0.259

row,Sequence,TLR9 500 nM
1,"CTCTTGAAGCATCGTATCAC (antisense; 2'-MOE modified, pattern not given here) [CTNN2B-3648 MOE]",0.472
2,"CTGTGATCTTGACATGCTGC (antisense; 2'-MOE modified, pattern not given here) [EGFR-2790 MOE]",0.298
3,"CTTACTTTCCGAGGTGTCCA (antisense; 2'-MOE modified, pattern not given here) [CAMSAP1-1739 MOE]",0.531
4,"GAACCACGTCTGCTCTAACA (antisense; 2'-MOE modified, pattern not given here) [CAMSAP1-1635 MOE]",0.466
5,"GAGGTCTTGGCTTCGTGGAG (antisense; 2'-MOE modified, pattern not given here) [MB21D1-523 MOE]",0.650
6,"GAGTCTCTGGAGCTTCCTCT (antisense; 2'-MOE modified, pattern not given here) [CAMSAP1-2456 MOE]",0.127
7,"GATGCTCCTCGGTCTCCCTT (antisense; 2'-MOE modified, pattern not given here) [CAMSAP1-1850 MOE]",0.196
8,"GATGGCCTCCCATCTCCTTC (antisense; 2'-MOE modified, pattern not given here) [HPRT-329 MOE]",1.268
9,"GCCGCTTTTCTGTCTGGTTC (antisense; 2'-MOE modified, pattern not given here) [CTNN2B-311 MOE]",1.018
10,"GCGACTATACGCGCAATATG (antisense; 2'-MOE modified, pattern not given here) [NC5 2′MOE]",0.035
11,"GCGGAGGTCTTGGCTTCGTG (antisense; 2'-MOE modified, pattern not given here) [MB21D1-526 MOE]",0.246
12,"GCGTATTATAGCCGATTAAC (antisense; 2'-MOE modified, pattern not given here) [NC1 2′MOE]",0.064
13,"GCGTGTCTGGAAGCTTCCTT (antisense; 2'-MOE modified, pattern not given here) [CTNN2B-809 MOE]",0.229
14,"GCTTCAGGCGCTGCCTTGCC (antisense; 2'-MOE modified, pattern not given here) [CAMSAP1-2709 MOE]",0.824
15,"GGAGATTTCAGAGCAGCTTC (antisense; 2'-MOE modified, pattern not given here) [EGFR-4885 MOE]",0.381
16,"GGAGCTTCGAGGCCCCAGGC (MOE modified, pattern not given here) [MB21D1-616 MOE]",0.168
17,"GGAGGTCTTGGCTTCGTGGA (antisense; 2'-MOE modified, pattern not given here) [MB21D1-524 MOE]",0.342
18,"GGCATCCACCACGTCGTCCA (antisense; 2'-MOE modified, pattern not given here) [EGFR-3266 MOE]",0.481
19,"GGGAAAGGTTATGCAAGGTC (antisense; 2'-MOE modified, pattern not given here) [CTNN2B-916 MOE]",0.505
